Data from US20260356856A1, “KRAS G12S AND G12C INHIBITORS” (MIRATI THERAPEUTICS, INC., priority 2023, published 2026).

Assays:
[1] = target: T1, KRas-mediated phosphorylation of ERK in A549 cells (Homo sapiens, UniProt P01116, G12S); experiment: Inhibition of KRas-mediated phosphorylation of ERK (HTRF), A549 cells; format: cell-based; conditions: HTRF pERK, 3 h incubation
T1 construct: pERK HTRF read-out

[2] = target: T2, KRas-mediated phosphorylation of ERK in H358 cells (Homo sapiens, UniProt P01116, G12C); experiment: Inhibition of KRas-mediated phosphorylation of ERK (HTRF), H358 cells; format: cell-based; conditions: HTRF pERK, 3 h incubation
T2 construct: pERK HTRF read-out

[3] = target: T3, KRas-mediated phosphorylation of ERK in MKN1 cells (Homo sapiens, UniProt P01116); experiment: Inhibition of KRas-mediated phosphorylation of ERK (HTRF), MKN1 cells; format: cell-based; conditions: MKN1 cells (KRas WT); HTRF pERK; 3 h incubation
T3 construct: pERK HTRF read-out
Description: Inhibition of KRas Phosphorylation of ERK (HTRF) by Exemplary Compounds of Formula (Ia) or (Ib)
Cisbio HTRF Advanced pERK Assay Catalog #64AERPEH • Cells: MKN1, PSN1 • Procedure: • 1. Day 1: Seed 6,000 cells/well −25 μl/well in 384-well white solid bottom plate; RPM1_10% FBS. Incubate overnight at 37 °C/5% CO2. • 2.

KRas G12S = target: T4, KRas G12S (Homo sapiens, UniProt P01116, G12S); experiment: KRas binding assay, TR-FRET displacement of Cy5 labelled tracer; conditions: 60-minute incubation at room temperature, 1% DMSO, pH 7.5
T4 construct: Biotinylated KRas (corresponding to amino acids 1-169, produced at Accelegan Inc.); biotin (biotinylated); purchased Accelegan Inc
Procedure, shortened: (§1)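 Assay buffer was HEPES (50 mM, pH 7.5) with MgCl2 (5 mM), DTT (1 mM) and Tween-20 (0.005%). Biotinylated KRas spanning residues 1-169 met tracer, terbium streptavidin and compound (1% DMSO, final) for 60 minutes at ambient temperature before reading. POC values were fitted for IC50.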

KRas WT = target: T5, KRas WT (Homo sapiens, UniProt P01116); experiment: as above; conditions: 60-minute incubation at room temperature, 1% DMSO, pH 7.5
T5 construct: Biotinylated KRas (corresponding to amino acids 1-169, produced at Accelegan Inc.); biotin (biotinylated); purchased Accelegan Inc
Procedure, shortened: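 Biotinylated KRas (residues 1-169) was incubated with tracer, terbium-streptavidin and compound at 1% DMSO final in 50 mM HEPES pH 7.5 containing 5 mM MgCl2, 0.005% Tween-20 and 1 mM DTT. The plate was read after 60 min at room temperature, and percent-of-control data were fit to a 4-parameter IC50 equation.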

KRas G12C = target: T6, KRas G12C (Homo sapiens, UniProt P01116, G12C); experiment: as above; conditions: 60-minute incubation at room temperature, 1% DMSO, pH 7.5
T6 construct: Biotinylated KRas (corresponding to amino acids 1-169, produced at Accelegan Inc.); biotin (biotinylated); purchased Accelegan Inc
Procedure, shortened: as §1

T5 sequence (P01116 1-169 isoform P01116-2): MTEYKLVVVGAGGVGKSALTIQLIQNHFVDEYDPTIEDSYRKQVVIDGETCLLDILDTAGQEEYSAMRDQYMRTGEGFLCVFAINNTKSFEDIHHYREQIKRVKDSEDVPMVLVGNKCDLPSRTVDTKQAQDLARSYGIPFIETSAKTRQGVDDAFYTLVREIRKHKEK
T6 sequence (P01116 1-169 isoform P01116-2 G12C): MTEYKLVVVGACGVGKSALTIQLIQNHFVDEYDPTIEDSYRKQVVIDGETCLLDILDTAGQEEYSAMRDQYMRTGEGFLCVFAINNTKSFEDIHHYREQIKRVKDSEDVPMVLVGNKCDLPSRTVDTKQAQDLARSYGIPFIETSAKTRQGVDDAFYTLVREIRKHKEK
T2 sequence (P01116 1-188 isoform P01116-2 G12C): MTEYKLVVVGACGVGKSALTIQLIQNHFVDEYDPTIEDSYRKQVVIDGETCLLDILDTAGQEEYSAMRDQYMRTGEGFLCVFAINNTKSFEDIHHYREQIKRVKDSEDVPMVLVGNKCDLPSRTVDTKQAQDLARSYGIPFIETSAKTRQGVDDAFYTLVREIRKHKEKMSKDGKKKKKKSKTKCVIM
T3 sequence (P01116 1-188 isoform P01116-2): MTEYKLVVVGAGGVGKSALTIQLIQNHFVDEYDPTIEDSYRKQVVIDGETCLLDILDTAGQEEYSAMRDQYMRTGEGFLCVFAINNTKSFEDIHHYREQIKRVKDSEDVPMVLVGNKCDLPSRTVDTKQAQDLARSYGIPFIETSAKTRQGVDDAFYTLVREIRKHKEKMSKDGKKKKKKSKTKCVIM
T1 sequence (P01116 1-188 isoform P01116-2 G12S): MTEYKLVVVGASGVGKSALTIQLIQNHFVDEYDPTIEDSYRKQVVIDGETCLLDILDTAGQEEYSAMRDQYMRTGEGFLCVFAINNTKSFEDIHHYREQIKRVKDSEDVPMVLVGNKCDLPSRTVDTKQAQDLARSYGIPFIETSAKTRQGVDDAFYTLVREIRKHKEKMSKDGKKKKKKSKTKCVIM
T4 sequence (P01116 1-169 isoform P01116-2 G12S): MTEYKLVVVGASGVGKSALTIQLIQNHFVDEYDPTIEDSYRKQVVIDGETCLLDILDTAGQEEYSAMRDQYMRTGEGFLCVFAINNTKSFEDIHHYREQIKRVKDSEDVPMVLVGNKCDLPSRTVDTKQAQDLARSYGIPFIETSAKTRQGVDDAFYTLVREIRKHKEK

| IC50 [1] | IC50 [2] | IC50 [3] | IC50 (KRas G12S) | IC50 (KRas WT) | IC50 (KRas G12C) | SMILES |
| --- | --- | --- | --- | --- | --- | --- |
| 431 nM | 9700 nM | 3380 nM | 197 nM | 432 nM | 307 nM | CCc1c(F)ccc2cc(O)cc(-c3ncc4c(N5CCC(C(=O)n6cc(C(C)C)cn6)CC5)nc(OC[C@@]56CCCN5C[C@H](F)C6)nc4c3F)c12 [Example 80, (1-(7-(8-ethyl-7-fluoro-3-hydroxynaphthalen-1-yl)-8-fluoro-2-(((2R,7aS)-2-fluorotetrahydro-1H-pyrrolizin-7a(5H)-yl)methoxy)pyrido[4,3-d]pyrimidin-4-yl)piperidin-4-yl)(4-isopropyl-1H-pyrazol-1-yl)methanone] |
| 3770 nM | 2160 nM | 192 nM | 93 nM | 32 nM | 165 nM | CCc1c(F)ccc2cc(O)cc(-c3ncc4c(N5C[C@@H](C)N(C(=O)n6ccc(C)n6)[C@@H](C)C5)nc(OC[C@@]56CCCN5C[C@H](F)C6)nc4c3F)c12 [Example 81, ((2S,6R)-4-(7-(8-ethyl-7-fluoro-3-hydroxynaphthalen-1-yl)-8-fluoro-2-(((2R,7aS)-2-fluorotetrahydro-1H-pyrrolizin-7a(5H)-yl)methoxy)pyrido[4,3-d]pyrimidin-4-yl)-2,6-dimethylpiperazin-1-yl)(3-methyl-1H-pyrazol-1-yl)methanone] |
| 3410 nM | 499 nM | 179 nM | 28 nM | 23 nM | 34 nM | CCc1c(F)ccc2cc(O)cc(-c3ncc4c(N5CCN(C(=O)n6ccc(C)n6)C(C)C5)nc(OC[C@@]56CCCN5C[C@H](F)C6)nc4c3F)c12 (stereo partly drawn) [Example 82, (4-(7-(8-ethyl-7-fluoro-3-hydroxynaphthalen-1-yl)-8-fluoro-2-(((2R,7aS)-2-fluorotetrahydro-1H-pyrrolizin-7a(5H)-yl)methoxy)pyrido[4,3-d]pyrimidin-4-yl)-2-methylpiperazin-1-yl)(3-methyl-1H-pyrazol-1-yl)methanone] |
| 1170 nM | 1410 nM | 2990 nM | 402 nM | 790 nM | 107 nM | CCc1c(F)ccc2cc(O)cc(-c3ncc4c(N5CCC(C)(C(=O)n6ccc(C)n6)CC5)nc(OC[C@@]56CCCN5C[C@H](F)C6)nc4c3F)c12 [Example 83, (1-(7-(8-ethyl-7-fluoro-3-hydroxynaphthalen-1-yl)-8-fluoro-2-(((2R,7aS)-2-fluorotetrahydro-1H-pyrrolizin-7a(5H)-yl)methoxy)pyrido[4,3-d]pyrimidin-4-yl)-4-methylpiperidin-4-yl)(3-methyl-1H-pyrazol-1-yl)methanone] |
| 55 nM | 7600 nM | 6390 nM | 7 nM | 154 nM | 53 nM | CCc1c(F)ccc2cc(O)cc(-c3ncc4c(N5CC(CC(=O)n6ccc(C)n6)C5)nc(OC[C@@]56CCCN5C[C@H](F)C6)nc4c3F)c12 [Example 84, 2-(1-(7-(8-ethyl-7-fluoro-3-hydroxynaphthalen-1-yl)-8-fluoro-2-(((2R,7aS)-2-fluorotetrahydro-1H-pyrrolizin-7a(5H)-yl)methoxy)pyrido[4,3-d]pyrimidin-4-yl)azetidin-3-yl)-1-(3-methyl-1H-pyrazol-1-yl) ethan-1-one] |
| 883 nM | 458 nM | 48 nM | 17 nM | 8 nM | 28 nM | CCc1c(F)ccc2cc(O)cc(-c3ncc4c(N5CC[C@H](C(=O)n6ccc(C)n6)[C@H](C)C5)nc(OC[C@@]56CCCN5C[C@H](F)C6)nc4c3F)c12 [Example 85, ((3S,4S)-1-(7-(8-ethyl-7-fluoro-3-hydroxynaphthalen-1-yl)-8-fluoro-2-(((2R,7aS)-2-fluorotetrahydro-1H-pyrrolizin-7a(5H)-yl)methoxy)pyrido[4,3-d]pyrimidin-4-yl)-3-methylpiperidin-4-yl)(3-methyl-1H-pyrazol-1-yl)methanone] |
| 12 nM | 91 nM | 1320 nM | < 2 nM | 58 nM | < 2 nM | CCc1c(F)ccc2cc(O)cc(-c3ncc4c(N(C)CCCC(=O)n5ccc(C)n5)nc(OC[C@@]56CCCN5C[C@H](F)C6)nc4c3F)c12 [Example 110, 4-((7-(8-ethyl-7-fluoro-3-hydroxynaphthalen-1-yl)-8-fluoro-2-(((2R,7aS)-2-fluorotetrahydro-1H-pyrrolizin-7a(5H)-yl)methoxy)pyrido[4,3-d]pyrimidin-4-yl)(methyl)amino)-1-(3-methyl-1H-pyrazol-1-yl) butan-1-one] |
| 243 nM | 382 nM | 875 nM | 16 nM | 30 nM | 16 nM | CCc1c(F)ccc2cc(O)cc(-c3ncc4c(N(C)CCC(=O)n5ccc(C)n5)nc(OC[C@@]56CCCN5C[C@H](F)C6)nc4c3F)c12 [Example 121, 3-((7-(8-ethyl-7-fluoro-3-hydroxynaphthalen-1-yl)-8-fluoro-2-(((2R,7aS)-2-fluorotetrahydro-1H-pyrrolizin-7a(5H)-yl)methoxy)pyrido[4,3-d]pyrimidin-4-yl)(methyl)amino)-1-(3-methyl-1H-pyrazol-1-yl) propan-1-one] |
| 2740 nM | 264 nM | 219 nM | 68 nM | 30 nM | 42 nM | CCc1c(F)ccc2cc(O)cc(-c3ncc4c(N5CCN(C(=O)n6ccc(C)n6)C(CF)C5)nc(OC[C@@]56CCCN5C[C@H](F)C6)nc4c3F)c12 (stereo partly drawn) [Example 123, (4-(7-(8-ethyl-7-fluoro-3-hydroxynaphthalen-1-yl)-8-fluoro-2-(((2R,7aS)-2-fluorotetrahydro-1H-pyrrolizin-7a(5H)-yl)methoxy)pyrido[4,3-d]pyrimidin-4-yl)-2-(fluoromethyl)piperazin-1-yl)(3-methyl-1H-pyrazol-1-yl)methanone] |
| 7 nM | 25 nM | 93 nM | 3 nM | 103 nM | 4 nM | CCc1c(F)ccc2cc(O)cc(-c3ncc4c(N5CCCCC(C(=O)n6ccc(C)n6)CC5)nc(OC[C@@]56CCCN5C/C(=C\F)C6)nc4c3F)c12 (stereo partly drawn) [Example 124, (1-(7-(8-ethyl-7-fluoro-3-hydroxynaphthalen-1-yl)-8-fluoro-2-(((S,Z)-2-(fluoromethylene)tetrahydro-1H-pyrrolizin-7a(5H)-yl)methoxy)pyrido[4,3-d]pyrimidin-4-yl)azocan-4-yl)(3-methyl-1H-pyrazol-1-yl)methanone] |
| 7190 nM | 635 nM | 514 nM | 407 nM | 193 nM | 224 nM | CCc1c(F)ccc2cc(O)cc(-c3ncc4c(N5CCN(C(=O)n6ccc(C)n6)C(C(F)(F)F)C5)nc(OC[C@@]56CCCN5C[C@H](F)C6)nc4c3F)c12 (stereo partly drawn) [Example 127, (4-(7-(8-ethyl-7-fluoro-3-hydroxynaphthalen-1-yl)-8-fluoro-2-(((2R,7aS)-2-fluorotetrahydro-1H-pyrrolizin-7a(5H)-yl)methoxy)pyrido[4,3-d]pyrimidin-4-yl)-2-(trifluoromethyl)piperazin-1-yl)(3-methyl-1H-pyrazol-1-yl)methanone] |
| 57 nM | 1540 nM | 7430 nM | 11 nM | 1190 nM | 93 nM | CCc1c(F)ccc2cc(O)cc(-c3ncc4c(N5C[C@H]6C[C@@H](C(=O)n7ccc(C)n7)C[C@H]6C5)nc(OC[C@@]56CCCN5C[C@H](F)C6)nc4c3F)c12 [Example 128, ((3aR,5S,6aS)-2-(7-(8-ethyl-7-fluoro-3-hydroxynaphthalen-1-yl)-8-fluoro-2-(((2R,7aS)-2-fluorotetrahydro-1H-pyrrolizin-7a(5H)-yl)methoxy)pyrido[4,3-d]pyrimidin-4-yl)octahydrocyclopenta[c]pyrrol-5-yl)(3-methyl-1H-pyrazol-1-yl)methanone] |
| 4 nM | 26 nM | 139 nM | 5 nM | 8 nM | 7 nM | N#Cc1c(N)sc2c(F)ccc(-c3c(Cl)cc4c(N5CCC(C(=O)n6cccn6)CC5)nc(OC[C@@]56CCCN5C[C@H](F)C6)nc4c3F)c12 [Example 129, 4-(4-(4-(1H-pyrazole-1-carbonyl)piperidin-1-yl)-6-chloro-8-fluoro-2-(((2R,7aS)-2-fluorotetrahydro-1H-pyrrolizin-7a(5H)-yl)methoxy)quinazolin-7-yl)-2-amino-7-fluorobenzo[b]thiophene-3-carbonitrile] |
